Experimental data from publication PMC10819458, “Using Pharmacokinetic–Pharmacodynamic Modeling to Study the Main Active Substances of the Anticancer Effect in Mice from Panax ginseng–Ophiopogon japonicus” (Molecules, 2024).
Where two headings read alike, the source gives them in different places.

Experiment: Lung-tissue pharmacokinetics of PG–OJ components in tumor-bearing mice (UPLC–MS/MS)
Assay type: in vivo, BALB/c nude male mice
Conditions: for Cmax: read-out: Cmax; for MRT last: read-out: MRT(0–t) (converted)
From the text: This study employed Ultra-Performance Liquid Chromatography–Mass Spectrometry (UPLC–MS/MS) to examine the pharmacokinetic properties of 20 bioactive components in a cell-derived xenograft (CDX) model following oral administration of a 10.2 g/kg PG–OJ extract.
Healthy BALB/c nude male mice (weight: 18–21 g) were purchased from Beijing Huafukang Biotechnology Co., Ltd. (Beijing, China, License Number: SCXK (Jing) 2021-0006). After 3 days of acclimatization, the mice were randomly divided into the control group (CG), model group (MG), and the combined-administration group of P. ginseng and O. japonicus (HM1-HM13) ([…], four-fold clinical-equivalent doses). Subsequently, except for the CG, 0.2 mL (approximately 2 × 10^7 cells) of A549 cell suspension was aspirated with a 1 mL syringe and injected into the right axillary fossa of the model group and drug-administration-group mice. The control-group mice were injected with an equal volume of PBS at the same location. The tumor diameter was measured daily using a caliper. The model was successful when the tumor diameter > 3 mm. The combined-administration group of P. ginseng and O. japonicus was given the corresponding drug orally, once a day, with 0.2 mL/mouse each time. The control group and the model group mice were given the same volume of distilled water, continuously orally for 21 days. During this period, the body weight and tumor volume of the mice were recorded. At the end of the last administration, the mice were […] 0.083, 0.167, 0.25, 0.5, 0.75, 1, 2, 3, 4, 6, 8, 12, 24 h later. After injecting 0.1% pentobarbital sodium, blood was collected from the eye-socket vein, the mice were decapitated, and the tumor and lung tissues were carefully removed.
After homogenizing 50 mg of right-lung-tissue sample, 2 mL of acetonitrile was added to precipitate proteins. The mixture was oscillated for 2 min and then centrifuged for 10 min (12,000 rpm, 4 °C). The supernatant from the new centrifuge tube was collected and dried with nitrogen at room temperature. Finally, the supernatant was redissolved in 50 μL of acetonitrile solution containing 0.1% formic acid. After oscillating for 1 min, another centrifugation step was performed, and the resulting supernatant was used for analysis.
Samples were analyzed on the Vanquish UPLC System (Thermo, Waltham, MA, USA). The Agilent C18 column (4.6 × 150 mm, 4 μm, PN:693970-902T) was selected. The mobile phase was composed of 0.1% formic acid aqueous solution (A) and 0.1% formic acid acetonitrile solution (B). The procedure of gradient elution was as follows: 0–10 min, 95–75% A; 10–25 min, 75–45% A; 25–40 min, 45–30% A; 40–50 min, 30–5% A; 55–55.1 min, 5–95% A; 55.1–60 min, 95% A. The column temperature was set to 30 °C with the flow rate of 0.3 mL/min and the injection volume of 3.0 μL. The mass-spectrometry detection with negative-ion mode was carried out using an Orbitrap Exploris 120 Mass Spectrometer (Thermo, Waltham, MA, USA) and Electrospray ionization (ESI). The sheath-gas-flow rate was […] and the auxiliary-gas-flow rate was […]. The capillary temperature was 325 °C, and the resolution was 120,000 in full scan mode with the mass scan range of 80~1500 m/z. The secondary cracking was performed with HCD at a collision voltage of 30 eV, and unnecessary MS/MS information was removed using the dynamic exclusion method.

[1] = lung tissue, A549 tumor-bearing mice, intragastric PG–OJ extract 10.2 g/kg (6.8 g/kg elsewhere in the source), mean ± SD, n = 6
[2] = male, BALB/c nude, mouse, po, lung tissue, A549 tumor-bearing mice, intragastric PG–OJ extract 10.2 g/kg (6.8 g/kg elsewhere in the source), mean ± SD, n = 6
[3] = male, BALB/c nude, mouse, in vivo, po, lung tissue, A549 tumor-bearing mice, intragastric PG–OJ extract 10.2 g/kg (6.8 g/kg elsewhere in the source), mean ± SD, n = 6

SMILES: CC(C)=CC/C=C(\C)[C@H]1CC[C@]2(C)[C@@H]1[C@H](O)C[C@@H]1[C@@]3(C)CC[C@H](O[C@@H]4O[C@H](CO)[C@@H](O)[C@H](O)[C@H]4O[C@@H]4O[C@H](CO)[C@@H](O)[C@H](O)[C@H]4O)C(C)(C)[C@@H]3CC[C@]12C [Ginsenoside Rg5]
- AUC(0–t) [1]: 1,342,117.43 ± 45,675.73 ng/g·min
- AUC(0–∞) [1]: 1,372,202.28 ± 48,963.33 ng/g·min
- AUC(0–∞) compared with other components (lung tissue, oral PG–OJ extract, in words): significantly higher than those of other components
- Tmax (male, BALB/c nude, mouse, lung tissue, po, 10.2 g/kg, lung tissue, A549 tumor-bearing mice, intragastric PG–OJ extract 10.2 g/kg (6.8 g/kg elsewhere in the source), mean ± SD, n = 6, read-out: Tmax (converted)): 240 min
- Tmax (male, BALB/c nude, mouse, lung tissue, po, 10.2 g/kg, lung tissue, oral PG–OJ extract, read-out: time to reach peak concentration): 720 min
- Cmax [2]: 7970 ± 442 ng/g
- MRT last [2]: 3.07 h
- half-life (male, BALB/c nude, mouse, po, lung tissue, A549 tumor-bearing mice, intragastric PG–OJ extract 10.2 g/kg (6.8 g/kg elsewhere in the source), mean ± SD, n = 6, read-out: T1/2): 127 ± 9.45 min
- exposure level in lung tissue (oral PG–OJ extract, in words): highest exposure level

SMILES: CC(C)=CCC[C@](C)(O)[C@H]1CC[C@]2(C)[C@@H]1[C@H](O)C[C@@H]1[C@@]3(C)CC[C@H](O)C(C)(C)[C@@H]3[C@@H](O[C@@H]3O[C@H](CO)[C@@H](O)[C@H](O)[C@H]3O)C[C@]12C [Ginsenoside Rh1]
- AUC(0–t) [1]: 1303.44 ± 70.16 ng·min/g
- AUC(0–∞) [1]: 1724.14 ± 411.48 ng·min/g
- time to reach maximum concentration (Cmax) after administration (lung tissue, oral PG–OJ extract): ≤ 15 min
- half-life (male, BALB/c nude, mouse, in vivo, po, 10.2 g/kg, lung tissue, A549 tumor-bearing mice, intragastric PG–OJ extract 10.2 g/kg (6.8 g/kg elsewhere in the source), mean ± SD, n = 6, read-out: T1/2): 418 ± 294 min
- half-life (male, BALB/c nude, mouse, in vivo, po, 10.2 g/kg, lung tissue, oral PG–OJ extract, read-out: half-life (converted)): 414 min
- Cmax [3]: 8.98 ± 0.2 ng/g
- MRT last [3]: 3.18 h
- Tmax (male, BALB/c nude, mouse, in vivo, po, lung tissue, A549 tumor-bearing mice, intragastric PG–OJ extract 10.2 g/kg (6.8 g/kg elsewhere in the source), mean ± SD, n = 6, read-out: Tmax (converted)): 12.5 min
- exposure level in lung tissue (oral PG–OJ extract, in words): extremely low

SMILES: CC1(C)CC[C@]2(C(=O)O[C@@H]3O[C@H](CO)[C@@H](O)[C@H](O)[C@H]3O)CC[C@]3(C)C(=CC[C@@H]4[C@@]5(C)CC[C@H](O[C@@H]6O[C@H](C(=O)O)[C@@H](O)[C@H](O)[C@H]6O[C@@H]6O[C@H](CO)[C@@H](O)[C@H](O)[C@H]6O)C(C)(C)[C@@H]5CC[C@]43C)[C@@H]2C1 [Ginsenoside Ro]
- T1/2 (mouse, in vivo, po): 252.46 ± 11.88 min
- Tmax (mouse, in vivo, po): 12.50 ± 2.89 min
- time to reach maximum concentration (Cmax) after administration (mouse, in vivo, po): ≤ 15 min

SMILES: Cc1c(O)c(C)c2c(c1O)C(=O)[C@H](Cc1ccc3c(c1)OCO3)CO2 [Methylophiopogonanone A]
- T1/2 (mouse, in vivo, po): 1219.25 ± 362.74 min
- Tmax (mouse, in vivo, po): 150.00 ± 0.00 min

SMILES: COc1ccc(C[C@@H]2COc3c(C)c(O)c(C)c(O)c3C2=O)cc1 [Methylophiopogonanone B]
- T1/2 (mouse, in vivo, po): 390.53 ± 100.42 min
- Tmax (mouse, in vivo, po): 150.00 ± 0.00 min

SMILES: CC(C)=CCC[C@](C)(O[C@@H]1O[C@H](CO)[C@@H](O)[C@H](O)[C@H]1O)[C@H]1CC[C@]2(C)[C@@H]1[C@H](O)C[C@@H]1[C@@]3(C)CC[C@H](O)C(C)(C)[C@@H]3[C@@H](O[C@@H]3O[C@H](CO)[C@@H](O)[C@H](O)[C@H]3O[C@@H]3OC[C@@H](O)[C@H](O)[C@H]3O)C[C@]12C [Notoginsenoside R1]
- T1/2 (mouse, in vivo, po): 74.38 ± 1.47 min
- Tmax (mouse, in vivo, po): 7.50 ± 3.54 min
- exposure level in lung tissue (mouse, in vivo, po): extremely low
- time to reach maximum concentration (Cmax) after administration (mouse, in vivo, po): ≤ 15 min

SMILES: CC(C)(O)[C@H]1CC[C@@](C)([C@H]2CC[C@]3(C)[C@@H]2[C@H](O)C[C@@H]2[C@@]4(C)CC[C@H](O)C(C)(C)[C@@H]4[C@@H](O[C@@H]4O[C@H](CO)[C@@H](O)[C@H](O)[C@H]4O)C[C@]23C)O1 [Pseudoginsenoside RT5]
- T1/2 (mouse, in vivo, po): 634.34 ± 141.79 min
- Tmax (mouse, in vivo, po): 15.00 ± 0.00 min
- half-life (mouse, in vivo, po): 636 min
- time to reach maximum concentration (Cmax) after administration (mouse, in vivo, po): ≤ 15 min
